Results published in ChEMBL document CHEMBL1137571 (J Med Chem, 2007).

Tests used:
[1] = target: T1, Amine oxidase [flavin-containing] A (Homo sapiens, UniProt P21397); assay: Inhibition of human recombinant MAOA expressed in Pichia pastoris
T1 sequence (P21397 whole entry): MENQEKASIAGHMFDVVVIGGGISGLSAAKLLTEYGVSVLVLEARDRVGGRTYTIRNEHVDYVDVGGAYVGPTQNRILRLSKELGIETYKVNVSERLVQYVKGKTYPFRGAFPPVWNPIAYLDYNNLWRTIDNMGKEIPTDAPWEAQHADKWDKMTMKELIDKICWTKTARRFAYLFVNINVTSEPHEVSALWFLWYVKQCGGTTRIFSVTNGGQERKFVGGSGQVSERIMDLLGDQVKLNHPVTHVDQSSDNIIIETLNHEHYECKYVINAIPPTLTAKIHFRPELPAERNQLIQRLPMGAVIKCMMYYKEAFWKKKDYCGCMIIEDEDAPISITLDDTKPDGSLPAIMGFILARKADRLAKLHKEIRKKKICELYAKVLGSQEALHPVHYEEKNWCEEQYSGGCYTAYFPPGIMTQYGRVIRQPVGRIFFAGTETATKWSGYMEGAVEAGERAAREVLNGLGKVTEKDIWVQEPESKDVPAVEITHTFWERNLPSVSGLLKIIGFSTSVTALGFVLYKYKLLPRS

[2] = target: T2, Amine oxidase [flavin-containing] B (Homo sapiens, UniProt P27338); assay: Inhibition of human recombinant MAOB expressed in Pichia pastoris
T2 sequence (P27338 whole entry): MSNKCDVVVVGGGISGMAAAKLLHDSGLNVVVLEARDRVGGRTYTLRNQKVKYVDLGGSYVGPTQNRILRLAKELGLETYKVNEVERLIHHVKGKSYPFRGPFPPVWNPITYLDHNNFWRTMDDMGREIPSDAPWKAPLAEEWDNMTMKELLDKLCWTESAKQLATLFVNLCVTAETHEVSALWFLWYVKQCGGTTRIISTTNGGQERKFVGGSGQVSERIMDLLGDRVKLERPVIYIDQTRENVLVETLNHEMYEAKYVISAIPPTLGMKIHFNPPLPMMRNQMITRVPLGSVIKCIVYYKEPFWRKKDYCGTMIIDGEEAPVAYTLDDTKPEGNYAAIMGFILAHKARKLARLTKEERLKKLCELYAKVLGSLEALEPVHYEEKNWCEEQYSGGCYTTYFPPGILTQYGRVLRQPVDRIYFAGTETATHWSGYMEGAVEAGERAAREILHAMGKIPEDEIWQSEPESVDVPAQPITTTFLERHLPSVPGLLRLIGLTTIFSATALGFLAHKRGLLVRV

Ki [1] [µM]	Ki [2] [nM]	SMILES
11	400	O=Cc1cc(=O)oc2cc(OCc3cccc(Cl)c3)ccc12
15.7	100	CNCc1cc(=O)oc2cc(OCc3cccc(Cl)c3)ccc12
